Results published in patent US9051309B2, “3,5-disubstituted-1,3,4-oxadiazol-2(3H)-ones and compositions and methods for controlling nematode pests” (Monsanto Technology LLC, priority 2013, dated 2015).
Marks after values point to notes of the source that are not given here.

Columns and labels:
[1] = test system: soybean cyst nematode (SCN); assay: SCN greenhouse sand assay on soybean plants; assay type: in vivo; details: SCN eggs about four hours after application, rated 28 days after egg inoculation
Procedure: (§1) First, a concentrate was prepared by dissolving 2 milligrams of the test compound in 2 mL of an acetone solvent. Test solutions were then prepared by combining an appropriate amount of the concentrate with an aqueous surfactant solution comprising TRITON X100 (0.05%).
A similar experiment was conducted with regard to control of soybean cyst nematode (SCN) on soybean plants. Soybean seeds were planted in a media consisting of 80% sand and 20% silt loam soil (v/v) in two inch square plastic pots. […] Approximately four hours after application of the nematicidal test solution, the nematode soybean cyst nematode (SCN) eggs were applied using the procedure described above. The soybean plants were rated for root galling 28 days after the egg inoculation.

[2] = test system: Meloidogyne incognita nematodes; assay: Miniaturized greenhouse nematicidal efficacy assay on cucumber seedlings in sand vials (root gall rating); details: 500 M. incognita eggs, harvest 10 to 12 days after inoculation, average of triplicate ratings
Procedure: A miniaturized greenhouse assay was conducted to study the effects of several 3,5-disubstituted-1,3,4-oxadiazol-2(3H)-one compounds on Meloidogyne incognita nematodes.
Cucumber seeds were sprouted for 3 days in moist paper towels. Acceptable sprouts were 3 to 4 cm long, with several lateral roots just emerging.
Each test solution was evaluated in triplicate. Dry sand (10 mL) was added to each vial. Seedlings were planted by tilting the vial and laying the seedling in the correct orientation so that the cotyledons were just above the sand, and then tilting back to cover the radicles with sand. A sample of the test solution (3.3 mL) was then added to each vial, and the vials were placed in racks under fluorescent light banks. The vials were inoculated two days after planting by adding 500 vermiform M. incognita eggs to each vial in deionized or spring water (50 μL). The vials were then kept under the fluorescent lamps at ambient room temperature and watered as needed with deionized water (1 mL), usually twice during duration of test.
Harvest of the cucumber plants was performed 10 to 12 days after inoculation by washing sand off the roots. A root gall rating was assigned using the following Gall rating scale (Gall: % root mass galled): 0=0-5%; 1=6-20%; 2=21-50%; and 3=51-100%.
Comparative solutions comprising other commercially available nematicidal compounds were also evaluated as controls.

[3] = test system: root knot nematode (RKN); assay: RKN greenhouse soil assay on cucumber plants (7 day longevity test); assay type: in vivo; details: inoculated 7 days after application, root galling rated 14 days after egg inoculation, galling reduction relative to control blank
Procedure: as §1
Cucumber seeds were planted in a sandy soil mixture in two inch square plastic pots. When the cotyledons were fully opened and just as the first leaf began to emerge, usually 7 days after planting, a nematicidal test solution was applied to each pot. Five milliliters of the appropriate chemical solution was pipetted to the media surface, making sure to avoid contact with the base of the plant. Immediately following chemical application, using a mist nozzle, the pot surface was wetted sufficiently to saturate the pot, effectively watering the test solution into the soil.
Seven days following application of the test solution, each pot was inoculated with root knot nematode (RKN) eggs. A nematode egg slurry was prepared by adding RKN nematode eggs to distilled water to create a concentration of 1000 vermiform eggs […] of water. […]
The cucumber plants were rated for root galling 14 days after the egg inoculation. […] A commercially available nematicide, fenamiphos, was also evaluated for comparison.

[4] = test system: root knot nematode (RKN); assay: Seed treatment on cucumber for RKN control; assay type: in vivo; details: 1000 root knot eggs five days after planting, galling rated 14 days after inoculation, versus untreated blank
Procedure: The excess of 30% by weight of test compound was added for each treatment that would equal 130% of the desired rate to assure target seed loading. The test compound (the amount as described in Table 3A below) and surfactant (optional) were dissolved in 3 mL acetone. AGRIMER VA-6 inert polymer was added at a concentration of 15% of the total test compound weight. Seeds were placed in the drum of the batch lab treater. The drum was rotated. The solutions of test compositions as described above were pipette onto seeds. The drum continued to rotate until the seed were dry.
3 inch by 3 inch plastic pots were filled with a media consisting of 80% sand and 20% silt loam soil (v/v). Treated cucumber seeds were planted ½ inch below the soil surface. Pots were watered as needed. Five days after planting the cucumber plants had the first true leaf emerging and each pot was inoculated with 1000 vermiform root knot eggs. The cucumber plants were rated for root galling 14 days after inoculation. The gall ratings were scored on a scale of 0-100 where, 0=no galls and 100=completely galled. Percent control was determined by comparison to the blank (untreated).

[5] = 40 ppm, scale 0=0-5%, 1=6-20%, 2=21-50%, 3=51-100% root mass galled

Molecule	gall ratings ([2]; 1 ppm, scale 0-3)	gall ratings ([2]; 8 ppm, scale 0-3)	gall ratings [2, 5]	other results
CNC(=O)O/N=C(\SC)C(=O)N(C)C [Oxamyl, reference compound]				Percent Control ([1]; application rate 0.1 kg/ha): 59^a Percent; Percent Control ([1]; application rate 0.25 kg/ha): 79^a Percent
O=c1oc(-c2ccco2)nn1-c1ccc(Cl)cc1 [Formula Ia-v, 3-(4-chlorophenyl)-5-(furan-2-yl)-1,3,4-oxadiazol-2(3H)-one]	1.67	1.00	0.33	
O=c1oc(-c2cccs2)nn1-c1ccc(Cl)cc1 [Formula Ia-iii, 3-(4-chlorophenyl)-5-(thiophen-2-yl)-1,3,4-oxadiazol-2(3H)-one]	0.00	0.33	0.00	Percent Control ([3]; application rate 0.1 kg/ha): 63^a Percent; Percent Control ([3]; application rate 0.25 kg/ha): 70^a Percent; Percent Control ([4]; seed treatment 0.1 mg a.i./seed): 12^b Percent; Percent Control ([4]; seed treatment 0.25 mg a.i./seed): 25^b Percent; Percent Control ([4]; seed treatment 0.5 mg a.i./seed): 62^a Percent; Percent Control ([1]; application rate 0.1 kg/ha): 29^a Percent; Percent Control ([1]; application rate 0.25 kg/ha): 56^a Percent
O=c1oc(-c2ccc(Cl)cc2)nn1-c1cccs1 [Formula IIa-iv, 5-(4-chlorophenyl)-3-(thiophen-2-yl)-1,3,4-oxadiazol-2(3H)-one]	3.00	1.67	1.00	
O=c1oc(-c2cccs2)nn1-c1ccccc1 [Formula Ia-i, 3-phenyl-5-(thiophen-2-yl)-1,3,4-oxadiazol-2(3H)-one]		2.00	1.00	
O=c1oc(-n2cccc2)nn1-c1ccccc1 [Formula Ic-i, 3-phenyl-5-(1H-pyrrol-1-yl)-1,3,4-oxadiazol-2(3H)-one]		0.33	0.00	
O=c1oc(-n2cccc2)nn1-c1ccc(Cl)cc1 [Formula Ic-ii, 3-(4-chlorophenyl)-5-(1H-pyrrol-1-yl)-1,3,4-oxadiazol-2(3H)-one]	2.33	1.67	1.00	
O=c1oc(-c2cccs2)nn1-c1ccc(F)cc1 [Formula Ia-iv, 3-(4-fluorophenyl)-5-(thiophen-2-yl)-1,3,4-oxadiazol-2(3H)-one]	3.00	2.00	1.33	
Abamectin [reference compound]	1.67^b			Percent Control ([4]; seed treatment 0.2 mg a.i./seed): 37^a Percent
O=c1oc(-c2ccco2)nn1-c1ccccc1 [Formula Ia-ii, 5-(furan-2-yl)-3-phenyl-1,3,4-oxadiazol-2(3H)-one]	3.00	1.33	0.00	
